Assay: Stability constant of the drug in relation to cyclodextrin (solubility method, Higuchi et al.)
Type: physicochemical
Details: 25°C, 24 hours shaking
Procedure: The stability constant of the drug in relation to cyclodextrin calculated by the solubility method is determined in the manner that, with the concentration of each drug being kept unchanged, a mixture of the drug and a cyclodextrin solution of varying concentration is shaken on a shaker at the rate of 200 cycles/min at 25°C for 24 hours to construct a solubility phase diagram of the drug at saturation in cyclodextrin solution and the stability constant is calculate by the method of Higuchi et al. [Advances in Analytical Chemistry and Instrumentation, Vol. 4, 144-148 (1965)].
The stability constant of the drug in relation to cyclodextrin was calculated applying the formula (8) on page 146, in "Advances in Analytical Chemistry and Instrumentation", Vol. 4, (1965).

Stability Constant α-CyD	Stability Constant β-CyD	Structure (SMILES)
54	911	CC(=O)[C@@]1(O)CC[C@H]2[C@@H]3C[C@H](C)C4=CC(=O)C=C[C@]4(C)[C@@]3(F)[C@@H](O)C[C@@]21C [Fluorometholone]
114	305	CCOC(=O)O[C@]1(C(=O)OCCl)CC[C@H]2[C@@H]3CCC4=CC(=O)C=C[C@]4(C)[C@H]3[C@@H](O)C[C@@]21C [Loteprednol Etabonate]
